Values of other authors in US20110034521A1, “COMPOUNDS AND METHODS FOR TREATING ZINC MATRIX METALLOPROTEASE DEPENDENT DISEASES” (priority 2007, published 2011).

Tests used:
[1] = Wojtowwicz-Praga et al. 1997
[2] = Sparano et al. 2004

| water solubility [1] | Compound | toxicity [2] |
| --- | --- | --- |
| poor water solubility | CNC(=O)[C@H](Cc1ccccc1)NC(=O)[C@H](CC(C)C)[C@H](CSc1cccs1)C(=O)NO [Batismastat] |  |
|  | CNC(=O)[C@@H](NC(=O)[C@H](CC(C)C)[C@H](O)C(=O)NO)C(C)(C)C [Marimastat] | musculoskeletal toxicity |
